In US6852332B2, “Liquid vitamin composition” (Adisseo France S.A.S., priority 2000, dated 2005):

Legend:
Type in all cases: physicochemical
[1] = Stability of second liquid vitamin formulation (Example 1), stored at 40° C., HPLC; details: for CONC at T = 0: immediately after preparation; for CONC at T = 1 week / CONC at T = 2 weeks / CONC at T = 3 weeks / CONC at T = 4 weeks: stored at 40° C.
Experimental: (§1) The stability of each formulation in the composition each was determined over a 4 weeks period. The concentration of vitamin in the formulation was analysed using standard analytical methods (high performance liquid chromatography). The formulations were stored at 40° C. over the test period.

[2] = Stability of third liquid vitamin formulation (vitamin K3, Example 1), stored at 40° C., HPLC
Experimental: as §1

[3] = Stability of vitamin A in poultry feed (Example 3), 20° C., 80% humidity, HPLC; details: four weeks
Experimental: A standard poultry feed comprising a digestible carbohydrate, a source of fat, a source of amino acid, vitamins and minerals as detailed in Table 3.1 below was used in this example Two sources of vitamin A are compared. Mixture A contained the vitamin composition in the liquid form according to the present invention whilst mixture B contained the conventional powdered vitamin composition. The vitamin pre-mixes were added to the feed. The stability of vitamin A in both feed samples was determined over a four weeks period. The feeds were stored at 20° C. and under 80% humidity. The concentration of vitamin A in the feed was measured using conventional analytical methods (high performance liquid chromatography).

[4] = Stability of first liquid vitamin formulation (Example 1), stored at 40° C., HPLC; details: for CONC at T = 0: immediately after preparation; for CONC at T = 2 weeks / CONC at T = 4 weeks: stored at 40° C.
Experimental: as §1

Compound | CONC at T = 0 [1] | CONC at T = 1 week [1] | CONC at T = 2 weeks [1] | CONC at T = 3 weeks [1] | CONC at T = 4 weeks [1] | CONC at T = 0 [4] | CONC at T = 2 weeks [4] | CONC at T = 4 weeks [4] | further results
Cc1cc2nc3c(=O)[nH]c(=O)nc-3n(C[C@H](O)[C@H](O)[C@H](O)CO)c2cc1C [Vitamin B2, riboflavin] | 1 g % g of solution | 1.08 g % g of solution | 1.04 g % g of solution | 1.04 g % g of solution | 1.01 g % g of solution |  |  |  | 
NC(=O)c1cccnc1 [Vitamin B3, niacinamide] | 8 g % g of solution | 7.98 g % g of solution | 7.8 g % g of solution | 7.85 g % g of solution | 8 g % g of solution |  |  |  | 
CC(C)(CO)[C@@H](O)C(=O)NCCCO [Vitamin B5, dexpanthénol] | 2.63 g % g of solution | 2.64 g % g of solution | 2.65 g % g of solution | 2.64 g % g of solution | 2.69 g % g of solution |  |  |  | 
Cc1ncc(CO)c(CO)c1O.OCl [Vitamin B6, pyridoxine chlorohydrate] | 0.355 g % g of solution | 0.32 g % g of solution | 0.33 g % g of solution | 0.333 g % g of solution | 0.329 g % g of solution |  |  |  | 
O=C(O)CCCC[C@@H]1SC[C@@H]2NC(=O)N[C@@H]21 [Vitamin H, biotine] | 0.021 g % g of solution | 0.022 g % g of solution | 0.02 g % g of solution | 0.021 g % g of solution | 0.021 g % g of solution |  |  |  | 
CC1=CC(=O)c2ccccc2C1=O [Vitamin K3, menadione] |  |  |  |  |  |  |  |  | Stability of vitamin K3 in the third liquid formulation (in words) ([2]; 40° C., 4 weeks): stable; CONC at T = 0 ([2]; third formulation, immediately after preparation): 2.00 g % g of solution; CONC at T = 2 weeks ([2]; third formulation, stored at 40° C., 2 weeks): 1.93 g % g of solution; CONC at T = 4 weeks ([2]; third formulation, stored at 40° C., 4 weeks): 1.92 g % g of solution
Oil of Vitamin A |  |  |  |  |  | 120500 UI/g | 118500 UI/g | 120400 UI/g | Stability of vitamin A in feed, liquid pre-mix versus powdered pre-mix (in words) [3]: as stable in the feed containing the liquid pre-mix as in the conventional powdered pre-mix
Oil of Vitamin D3 |  |  |  |  |  | 56200 UI/g | 56160 UI/g | 52800 UI/g | 
Oil of Vitamin E |  |  |  |  |  | 27.6% | 29.1% | 29.3% | 
Vitamin B12 |  |  |  |  |  | 0.0202% | 0.0165% | 0.0157% | 
